{
  "source": "ChEMBL document CHEMBL5316326",
  "about": "“Discovery of a Novel Covalent EZH2 Inhibitor Based on Tazemetostat Scaffold for the Treatment of Ovarian Cancer” (J Med Chem, 2023)",
  "key": {"[1]": {"assay": "AUCt in Sprague-Dawley rat at 5 mg/kg, iv and measured upto 24 hrs by LC-MS/MS analysis", "type": "ADME, organism-based", "design": "time < 24 hrs, dose 5 mg/kg, route iv", "conditions": "in vivo"}, "[2]": {"assay": "Antiproliferative activity against human COV362 cells assessed as inhibition of cell proliferation incubated for 72 hrs by MTT assay", "type": "functional, cell-based", "conditions": "COV362, 72 h"}, "SK-OV-3": {"tested_on": "SK-OV-3", "assay": "Antiproliferative activity against human SK-OV-3 cells assessed as inhibition of cell proliferation incubated for 72 hrs by MTT assay", "type": "functional, cell-based", "conditions": "SK-OV-3, 72 h"}, "ES-2": {"tested_on": "ES-2", "assay": "Antiproliferative activity against human ES2 cells assessed as inhibition of cell proliferation incubated for 72 hrs by MTT assay", "type": "functional, cell-based", "conditions": "ES-2, 72 h"}, "PA-1 [3]": {"tested_on": "PA-1", "assay": "Induction of apoptosis in human PA-1 cells assessed as necrotic cells at 10 uM incubated for 48 hrs by AnnexinV-FITC/PI staining based flow cytometry analysis (Rvb= 1.48%)", "type": "functional"}, "[4]": {"assay": "MRT(t) in Sprague-Dawley rat at 100 mg/kg, po and measured upto 24 hrs by LC-MS/MS analysis", "type": "ADME, organism-based", "conditions": "in vivo"}, "[5]": {"molecular_target": "T1, Histone-lysine N-methyltransferase EZH2 (Homo sapiens, UniProt Q15910)", "assay": "Inhibition of EZH2 methyltransferase activity in human A2780 cells assessed as reduction in H3K27me3 level incubated for 3 days by Western blot analysis", "type": "cell-based"}, "PA-1 [6]": {"tested_on": "PA-1", "assay": "Induction of apoptosis in human PA-1 cells assessed as late apoptotic cells at 40 uM incubated for 48 hrs by AnnexinV-FITC/PI staining based flow cytometry analysis (Rvb= 3.09%)", "type": "functional"}, "[7]": {"molecular_target": "Histone-lysine N-methyltransferase SUV39H1 (Homo sapiens) (UniProt O43463)", "sequence (O43463 whole entry)": "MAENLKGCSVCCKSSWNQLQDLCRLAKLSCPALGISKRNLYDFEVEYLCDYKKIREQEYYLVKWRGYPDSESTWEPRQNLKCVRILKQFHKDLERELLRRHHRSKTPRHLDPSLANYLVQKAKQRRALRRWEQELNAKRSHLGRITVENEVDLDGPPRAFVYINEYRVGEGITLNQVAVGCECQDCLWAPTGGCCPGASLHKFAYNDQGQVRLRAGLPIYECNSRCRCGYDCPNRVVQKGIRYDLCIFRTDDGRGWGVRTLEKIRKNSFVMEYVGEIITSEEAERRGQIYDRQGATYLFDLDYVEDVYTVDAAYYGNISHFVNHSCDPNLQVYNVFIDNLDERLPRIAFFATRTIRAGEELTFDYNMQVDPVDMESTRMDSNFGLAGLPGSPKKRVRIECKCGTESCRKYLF", "assay": "Inhibition of SUV39H1 (unknown origin) at 1 to 10 uM by AlphaLlSA assay", "conditions": "dose 1-10 µM"}, "PA-1 [8]": {"tested_on": "PA-1", "assay": "Induction of apoptosis in human PA-1 cells assessed as early apoptotic cells at 5 uM incubated for 48 hrs by AnnexinV-FITC/PI staining based flow cytometry analysis (Rvb= 6.89%)", "type": "functional"}, "[9]": {"assay": "Toxicity in BALB/C nude mouse xenografted with human PA-1 cells assessed as body weight change at 75 to 150 mg/kg,po BID for 21 days", "type": "organism-based", "conditions": "in vivo, 504 h, dose 75-150 mg/kg, time 21 day"}, "[10]": {"molecular_target": "T1, Histone-lysine N-methyltransferase EZH2", "assay": "Covalent inhibition of EZH2 (unknown origin) assessed as slow change in dissociation rate preincubated for 60 mins followed by substrate addition and measured upto 90 mins using Mix-GL11 and 3H-SAM as substrate by spin column method", "conditions": "time > 150.0 min"}, "PA-1 [11]": {"tested_on": "PA-1", "assay": "Induction of apoptosis in human PA-1 cells assessed as necrotic cells at 40 uM incubated for 48 hrs by AnnexinV-FITC/PI staining based flow cytometry analysis (Rvb= 1.48%)", "type": "functional"}, "[12]": {"molecular_target": "T1, Histone-lysine N-methyltransferase EZH2", "assay": "Inhibition of EZH2 methyltransferase activity in human A2780 cells assessed as reduction in H3K27me3 level at 10 uM and measured upto 4 days by Western blot analysis", "type": "cell-based", "conditions": "time <= 4.0 day, TDE = time-dependent effect"}, "[13]": {"assay": "Toxicity in BALB/C nude mouse xenografted with human PA-1 cells assessed as pathological changes in kidney at 75 to 150 mg/kg,po BID for 21 days by H&E staining based microscopic analysis", "type": "organism-based", "conditions": "in vivo, 504 h, dose 75-150 mg/kg, time 21 day"}, "[14]": {"molecular_target": "Protein arginine N-methyltransferase 1 (Homo sapiens) (UniProt Q99873)", "sequence (Q99873 whole entry, looked up)": "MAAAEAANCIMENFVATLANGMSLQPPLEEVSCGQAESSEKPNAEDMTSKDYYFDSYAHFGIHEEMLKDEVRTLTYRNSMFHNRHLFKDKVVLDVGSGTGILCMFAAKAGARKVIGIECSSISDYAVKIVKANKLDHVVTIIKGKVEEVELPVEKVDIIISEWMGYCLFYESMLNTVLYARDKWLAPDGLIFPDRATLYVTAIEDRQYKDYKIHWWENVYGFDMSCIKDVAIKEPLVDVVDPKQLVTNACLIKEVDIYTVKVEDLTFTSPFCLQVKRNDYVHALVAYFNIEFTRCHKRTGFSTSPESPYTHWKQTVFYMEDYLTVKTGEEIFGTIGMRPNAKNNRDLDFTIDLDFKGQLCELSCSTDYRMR", "assay": "Inhibition of PRMT1 (unknown origin) at 1 to 10 uM by AlphaLlSA assay", "conditions": "dose 1-10 µM"}, "[15]": {"assay": "Half life in Sprague-Dawley rat at 5 mg/kg, iv and measured upto 24 hrs by LC-MS/MS analysis", "type": "ADME, organism-based", "conditions": "in vivo"}, "[16]": {"assay": "MRT(t) in Sprague-Dawley rat at 5 mg/kg, iv and measured upto 24 hrs by LC-MS/MS analysis", "type": "ADME, organism-based", "conditions": "in vivo"}, "[17]": {"assay": "Half life in Sprague-Dawley rat at 100 mg/kg, po and measured upto 24 hrs by LC-MS/MS analysis", "type": "ADME, organism-based", "conditions": "in vivo"}, "MCF7": {"tested_on": "MCF7", "assay": "Antiproliferative activity against human MCF7 cells assessed as inhibition of cell proliferation incubated for 72 hrs by MTT assay", "type": "functional, cell-based", "conditions": "MCF7, 72 h"}, "[18]": {"assay": "Protein binding in Sprague-Dawley rat plasma at 2 uM incubated for 5 hrs by equilibrium dialysis based LC-MS/MS analysis", "type": "ADME, cell-free", "conditions": "read-out: PPB (converted)"}, "[19]": {"molecular_target": "Histone-lysine N-methyltransferase EZH1 (Homo sapiens) (UniProt Q92800)", "sequence (Q92800 whole entry)": "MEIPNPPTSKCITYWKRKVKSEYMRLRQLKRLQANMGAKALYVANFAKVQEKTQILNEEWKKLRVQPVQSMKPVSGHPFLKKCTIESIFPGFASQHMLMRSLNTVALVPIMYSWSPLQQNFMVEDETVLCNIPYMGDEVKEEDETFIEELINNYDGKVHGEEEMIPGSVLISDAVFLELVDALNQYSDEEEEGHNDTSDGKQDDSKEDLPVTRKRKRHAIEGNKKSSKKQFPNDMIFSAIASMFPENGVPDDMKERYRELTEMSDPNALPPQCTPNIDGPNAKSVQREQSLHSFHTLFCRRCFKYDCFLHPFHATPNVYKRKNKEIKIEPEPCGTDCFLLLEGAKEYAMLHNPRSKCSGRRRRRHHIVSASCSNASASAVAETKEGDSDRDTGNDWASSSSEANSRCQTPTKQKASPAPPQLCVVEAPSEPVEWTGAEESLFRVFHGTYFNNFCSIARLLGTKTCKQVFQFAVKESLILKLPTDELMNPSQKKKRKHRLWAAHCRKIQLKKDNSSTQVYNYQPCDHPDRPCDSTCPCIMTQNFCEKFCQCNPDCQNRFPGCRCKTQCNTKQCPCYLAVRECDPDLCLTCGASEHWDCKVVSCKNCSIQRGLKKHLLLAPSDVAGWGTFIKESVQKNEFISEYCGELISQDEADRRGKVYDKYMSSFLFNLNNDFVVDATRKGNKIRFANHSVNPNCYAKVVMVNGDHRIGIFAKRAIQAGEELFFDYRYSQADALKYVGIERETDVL", "assay": "Inhibition of EZH1 (unknown origin) by AlphaLlSA assay"}, "[20]": {"tested_on": "Histone-lysine N-methyltransferase EZH2 (Homo sapiens), Q15910 [A677G]", "sequence (Q15910 whole entry A677G)": "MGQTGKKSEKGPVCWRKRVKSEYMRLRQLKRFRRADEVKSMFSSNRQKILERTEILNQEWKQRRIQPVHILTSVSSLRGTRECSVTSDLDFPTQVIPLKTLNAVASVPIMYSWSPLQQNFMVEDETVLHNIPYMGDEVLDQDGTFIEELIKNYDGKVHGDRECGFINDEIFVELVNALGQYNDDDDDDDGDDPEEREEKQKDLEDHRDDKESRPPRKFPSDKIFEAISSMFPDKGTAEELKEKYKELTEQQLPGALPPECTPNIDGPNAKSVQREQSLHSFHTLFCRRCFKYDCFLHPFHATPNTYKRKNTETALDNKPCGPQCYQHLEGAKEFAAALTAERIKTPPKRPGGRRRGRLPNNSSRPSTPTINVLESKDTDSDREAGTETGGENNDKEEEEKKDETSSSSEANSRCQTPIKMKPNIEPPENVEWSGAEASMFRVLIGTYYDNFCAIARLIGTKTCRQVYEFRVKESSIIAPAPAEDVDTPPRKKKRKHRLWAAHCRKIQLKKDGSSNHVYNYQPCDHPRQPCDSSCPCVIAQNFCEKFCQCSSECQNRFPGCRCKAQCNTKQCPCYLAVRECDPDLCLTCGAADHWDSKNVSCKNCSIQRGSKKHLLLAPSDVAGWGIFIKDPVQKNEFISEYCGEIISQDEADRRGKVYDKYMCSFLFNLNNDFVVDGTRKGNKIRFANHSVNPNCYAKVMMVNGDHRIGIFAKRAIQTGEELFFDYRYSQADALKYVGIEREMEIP", "assay": "Inhibition of EZH2 […] mutant (unknown origin) at 1 nM by AlphaLlSA assay"}, "PA-1 [21]": {"tested_on": "PA-1", "assay": "Antitumor activity against human PA-1 cells xenografted in BALB/C nude mouse assessed as tumor growth inhibition at 150 mg/kg,po BID for 21 days", "type": "functional", "conditions": "PA-1, 504 h, time 21 day, read-out: TGI"}, "[22]": {"molecular_target": "Histone-lysine N-methyltransferase EHMT2 (Homo sapiens) (UniProt Q96KQ7)", "sequence (Q96KQ7 whole entry)": "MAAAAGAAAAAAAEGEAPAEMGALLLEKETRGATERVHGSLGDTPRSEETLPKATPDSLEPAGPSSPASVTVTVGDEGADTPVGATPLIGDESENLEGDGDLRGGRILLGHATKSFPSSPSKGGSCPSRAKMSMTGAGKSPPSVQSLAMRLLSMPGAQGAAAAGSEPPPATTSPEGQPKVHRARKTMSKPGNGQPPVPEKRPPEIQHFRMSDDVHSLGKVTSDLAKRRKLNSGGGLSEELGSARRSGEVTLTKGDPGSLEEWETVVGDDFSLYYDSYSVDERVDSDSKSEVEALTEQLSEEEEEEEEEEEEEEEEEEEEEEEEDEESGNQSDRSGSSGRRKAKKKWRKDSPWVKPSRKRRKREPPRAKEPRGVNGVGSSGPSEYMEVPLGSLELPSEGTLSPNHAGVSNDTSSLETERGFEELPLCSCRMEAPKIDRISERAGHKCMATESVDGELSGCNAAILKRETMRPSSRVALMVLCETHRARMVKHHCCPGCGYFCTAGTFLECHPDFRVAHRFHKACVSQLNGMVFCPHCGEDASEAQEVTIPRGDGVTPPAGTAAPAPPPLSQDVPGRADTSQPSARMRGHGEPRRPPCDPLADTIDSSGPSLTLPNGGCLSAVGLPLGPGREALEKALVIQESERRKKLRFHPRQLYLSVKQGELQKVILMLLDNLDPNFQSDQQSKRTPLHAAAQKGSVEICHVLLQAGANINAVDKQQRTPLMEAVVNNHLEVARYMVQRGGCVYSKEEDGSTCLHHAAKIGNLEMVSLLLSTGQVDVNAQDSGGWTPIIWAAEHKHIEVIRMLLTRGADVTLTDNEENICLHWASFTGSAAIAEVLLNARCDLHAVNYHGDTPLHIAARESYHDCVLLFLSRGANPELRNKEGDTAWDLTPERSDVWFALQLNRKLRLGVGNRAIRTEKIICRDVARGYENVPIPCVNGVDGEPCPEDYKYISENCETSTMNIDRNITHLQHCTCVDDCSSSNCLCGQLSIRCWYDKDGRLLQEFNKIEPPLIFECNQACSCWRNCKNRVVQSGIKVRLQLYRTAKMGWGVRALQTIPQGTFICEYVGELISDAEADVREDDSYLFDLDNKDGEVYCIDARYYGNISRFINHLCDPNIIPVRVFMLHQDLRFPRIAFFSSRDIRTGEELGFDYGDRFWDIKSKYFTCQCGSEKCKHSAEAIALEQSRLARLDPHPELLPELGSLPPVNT", "assay": "Inhibition of G9a (unknown origin) at 1 to 10 uM by AlphaLlSA assay", "conditions": "dose 1-10 µM"}, "[23]": {"assay": "Tmax in Sprague-Dawley rat at 100 mg/kg, po and measured upto 24 hrs by LC-MS/MS analysis", "type": "ADME, organism-based", "conditions": "in vivo"}, "BT-549": {"tested_on": "BT-549", "assay": "Antiproliferative activity against human BT-549 cells assessed as inhibition of cell proliferation incubated for 72 hrs by MTT assay", "type": "functional, cell-based", "conditions": "BT-549, 72 h"}, "PA-1 [24]": {"tested_on": "PA-1", "assay": "Induction of apoptosis in human PA-1 cells assessed as viable cells at 10 uM incubated for 48 hrs by AnnexinV-FITC/PI staining based flow cytometry analysis (Rvb= 88.53%)", "type": "functional", "conditions": "read-out: Activity"}, "[25]": {"molecular_target": "T1, Histone-lysine N-methyltransferase EZH2", "assay": "Inhibition of EZH2 methyltransferase activity in human PA-1 cells assessed as reduction in H3K27me3 level at 0.3 to 5 uM incubated for 3 days by Western blot analysis", "type": "cell-based", "conditions": "dose 0.3-5 µM, time 3.0 day"}, "[26]": {"assay": "AUCt in Sprague-Dawley rat at 100 mg/kg, po and measured upto 24 hrs by LC-MS/MS analysis", "type": "ADME, organism-based", "design": "time < 24 hrs, dose 100 mg/kg, route po", "conditions": "in vivo"}, "A2780": {"tested_on": "A2780", "assay": "Antiproliferative activity against human A2780 cells assessed as inhibition of cell proliferation incubated for 3 to 5 days by MTT assay", "type": "functional, cell-based", "conditions": "time 3-5 day, TDE = time-dependent effect"}, "PA-1 [27]": {"tested_on": "PA-1", "assay": "Induction of apoptosis in human PA-1 cells assessed as late apoptotic cells at 10 uM incubated for 48 hrs by AnnexinV-FITC/PI staining based flow cytometry analysis (Rvb= 3.09%)", "type": "functional"}, "[28]": {"assay": "Glutathione reactivity in pH 7.4 phosphate buffer assessed as GSH-adduct formation at 1 mM incubated for 2 to 12 hrs by HPLC-MS analysis", "type": "physicochemical", "conditions": "pH 7.4, 1000 µM, time 2-12 hrs"}, "[29]": {"assay": "Toxicity in BALB/C nude mouse xenografted with human PA-1 cells assessed as pathological changes in heart at 75 to 150 mg/kg,po BID for 21 days by H&E staining based microscopic analysis", "type": "organism-based", "conditions": "in vivo, 504 h, dose 75-150 mg/kg, time 21 day"}, "[30]": {"assay": "Toxicity in BALB/C nude mouse xenografted with human PA-1 cells assessed as pathological changes in liver at 75 to 150 mg/kg,po BID for 21 days by H&E staining based microscopic analysis", "type": "organism-based", "conditions": "in vivo, 504 h, dose 75-150 mg/kg, time 21 day"}, "PA-1 [31]": {"tested_on": "PA-1", "assay": "Antiproliferative activity against human PA-1 cells assessed as inhibition of cell proliferation incubated for 3 to 5 days by MTT assay", "type": "functional, cell-based", "conditions": "time 3-5 day, TDE = time-dependent effect"}},
  "note": "Active and inactive are the calls of the source. The calls are words filed in the database; no cut-off is given here.",
  "data": [
    {"molecule": "C=CC(=O)Nc1ccc(C)c(-c2cc(C(=O)NCc3c(C)cc(C)[nH]c3=O)c(C)c(N(CC)C3CCOCC3)c2)c1", "values": [
      {"measurement": "AUCt", "setting": "[1]", "result": 7225.47, "unit": "ng·h/mL"},
      {"measurement": "IC50", "setting": "[2]", "result": "> 100", "unit": "µM"},
      {"measurement": "IC50", "setting": "SK-OV-3", "result": 56.4, "unit": "µM"},
      {"measurement": "IC50", "setting": "ES-2", "result": 36.4, "unit": "µM"},
      {"measurement": "Activity", "setting": "PA-1 [3]", "result": 0.94, "unit": "%"},
      {"measurement": "MRT last at 24 h", "setting": "[4]", "result": 104, "unit": "min"},
      {"measurement": "IC50", "setting": "[5]", "result": 1.27, "unit": "µM"},
      {"measurement": "Activity", "setting": "PA-1 [6]", "result": 2.21, "unit": "%"},
      {"measurement": "inhibition", "setting": "[7]", "result": "inactive"},
      {"measurement": "Activity", "setting": "PA-1 [8]", "result": 10.39, "unit": "%"},
      {"measurement": "Activity", "setting": "[9]", "result": "Non-Toxic"},
      {"measurement": "inhibition", "setting": "[10]", "result": "Active"},
      {"measurement": "Activity", "setting": "PA-1 [11]", "result": 0.34, "unit": "%"},
      {"measurement": "inhibition", "setting": "[12]", "result": "Tde"},
      {"measurement": "Activity", "setting": "[13]", "result": "Non-Toxic"},
      {"measurement": "inhibition", "setting": "[14]", "result": "inactive"},
      {"measurement": "t1/2", "setting": "[15]", "result": 36.6, "unit": "min"},
      {"measurement": "MRT(t)", "setting": "[16]", "result": 15.6, "unit": "min"},
      {"measurement": "half-life", "setting": "[17]", "result": 46.2, "unit": "min"},
      {"measurement": "IC50", "setting": "MCF7", "result": 56.2, "unit": "µM"},
      {"measurement": "fraction unbound at 5 h, 2 µM", "setting": "[18]", "result": 0.0022},
      {"measurement": "inhibition", "setting": "[19]", "result": "Active"},
      {"measurement": "inhibition", "setting": "[20]", "result": "Active"},
      {"measurement": "inhibition in vivo at 150 mg/kg", "setting": "PA-1 [21]", "result": 78.2, "unit": "%"},
      {"measurement": "inhibition", "setting": "[22]", "result": "inactive"},
      {"measurement": "Tmax", "setting": "[23]", "result": 22.8, "unit": "min"},
      {"measurement": "IC50", "setting": "BT-549", "result": 18.9, "unit": "µM"},
      {"measurement": "viability at 10 µM", "setting": "PA-1 [24]", "result": 70.5, "unit": "%"},
      {"measurement": "inhibition", "setting": "[25]", "result": "Dose-Dependent Effect"},
      {"measurement": "AUC(0-t) at 24 h", "setting": "[26]", "result": 12600, "unit": "ng·h/mL"},
      {"measurement": "Activity", "setting": "A2780", "result": "Tde"},
      {"measurement": "Activity", "setting": "PA-1 [27]", "result": 6.16, "unit": "%"},
      {"measurement": "Activity", "setting": "[28]", "result": "Not Active"},
      {"measurement": "Activity", "setting": "[29]", "result": "Non-Toxic"},
      {"measurement": "Activity", "setting": "[30]", "result": "Non-Toxic"},
      {"measurement": "Activity", "setting": "PA-1 [31]", "result": "Tde"}
    ]}
  ]
}
